Assay results taken from ChEMBL document CHEMBL3822371, “Rapid Discovery and Structure-Activity Relationships of Pyrazolopyrimidines That Potently Suppress Breast Cancer Cell Growth via SRC Kinase Inhibition with Exceptional Selectivity over ABL Kinase” (J Med Chem, 2016).
The source made the active and inactive calls. The rule behind the calls is not given here.

Tests used:
MCF7 [1] = assay: cells; conditions: Homo sapiens, MCF7, 120 h
MCF7 [2] = assay: Antiproliferative activity against human MCF7 cells assessed as reduction in cell confluence level at […] after 5 days by microscopy based time-lapse imaging assay; assay type: functional
[3] = target: Mast/stem cell growth factor receptor Kit (Homo sapiens, UniProt P10721); assay: Inhibition of human KIT using poly[Glu,Tyr]4:1 as substrate in presence of [gamma-33P]ATP
[4] = target: Serine/threonine-protein kinase mTOR (Homo sapiens, UniProt P42345); assay: Inhibition of human mTOR using poly[Glu,Tyr]4:1 as substrate in presence of [gamma-33P]ATP
[5] = target: Platelet-derived growth factor receptor alpha (Homo sapiens, UniProt P16234); assay: Inhibition of human PDGFRalpha using poly[Glu,Tyr]4:1 as substrate in presence of [gamma-33P]ATP
[6] = target: Proto-oncogene tyrosine-protein kinase receptor Ret (Homo sapiens, UniProt P07949); assay: Inhibition of human RET using poly[Glu,Tyr]4:1 as substrate in presence of [gamma-33P]ATP
MDA-MB-231 [7] = assay: cells; conditions: Homo sapiens, MDA-MB-231, 120 h
MCF7 [8] = assay: Antiproliferative activity against human MCF7 cells assessed as cell death at […] after 48 to 120 hrs by microscopy based time-lapse imaging assay; assay type: functional
[9] = target: Focal adhesion kinase 1 (Mus musculus) (UniProt P34152); assay: Inhibition of FAK phosphorylation at tyrosine 861 in SRC, YES and FYN deficient mouse SYF cells at 3 to 100 nM preincubated for 1.5 hrs followed by serum stimulation for 1 hr by Western blot analysis; assay type: cell-based
[10] = Antiproliferative activity against SRC, YES and FYN deficient mouse SYF cells at 3 to 100 nM; assay type: cell-based; conditions: 0.1 µM
MDA-MB-231 [11] = assay: Antimigratory activity in human MDA-MB-231 cells at >10 nM after 24 hrs by microscopy based scratch-wound cell migration assay; assay type: functional
MDA-MB-231 [12] = assay: Cytotoxicity against human MDA-MB-231 cells assessed as reduction in cell viability at >10 nM after 24 hrs; assay type: cell-based; conditions: mda-mb-231, 24 h
MCF7 [13] = assay: Induction of apoptosis in human MCF7 cells assessed as caspase 3/7 activity at >/= 100 nM after 5 days using phase contrast and fluorescent microscopy; assay type: functional, cell-based
Danio rerio = organism: Danio rerio; assay: Effect on the development of the wild-type zebrafish embryos at 500 uM treated for 4 hrs measured at 48 hrs by fluorescent microscopy; assay type: ADME, organism-based; conditions: in vivo
Plasma [14] = assay: Metabolic stability in human plasma at 1 uM after 20 to 120 mins by LC-MS/MS analysis; assay type: ADME, cell-free
Plasma [15] = assay: Metabolic stability in mouse plasma at 1 uM after 20 to 120 mins by LC-MS/MS analysis; assay type: ADME, cell-free
Plasma [16] = assay: Metabolic stability in rat plasma at 1 uM after 20 to 120 mins by LC-MS/MS analysis; assay type: ADME, cell-free
Cytochrome P450 1A2 = target: T1, Cytochrome P450 1A2 (Homo sapiens, UniProt P05177); assay: Inhibition of CYP1A2 (unknown origin) at 10 uM; assay type: ADME
T1 sequence (P05177 whole entry): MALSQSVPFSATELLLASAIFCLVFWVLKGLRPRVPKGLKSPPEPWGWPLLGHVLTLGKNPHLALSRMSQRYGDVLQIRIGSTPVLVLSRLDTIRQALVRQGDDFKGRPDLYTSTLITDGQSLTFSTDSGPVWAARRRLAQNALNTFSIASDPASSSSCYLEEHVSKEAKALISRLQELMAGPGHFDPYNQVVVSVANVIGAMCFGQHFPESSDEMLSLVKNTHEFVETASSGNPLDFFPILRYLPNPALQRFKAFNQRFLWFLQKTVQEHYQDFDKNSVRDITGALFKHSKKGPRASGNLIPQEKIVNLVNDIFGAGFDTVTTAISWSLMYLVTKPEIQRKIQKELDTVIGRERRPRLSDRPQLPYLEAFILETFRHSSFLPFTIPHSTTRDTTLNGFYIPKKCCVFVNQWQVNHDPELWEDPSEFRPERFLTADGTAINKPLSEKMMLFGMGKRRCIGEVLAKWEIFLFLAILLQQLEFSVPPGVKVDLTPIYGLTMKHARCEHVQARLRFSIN

Cytochrome P450 3A4 = Cytochrome P450 3A4 (Homo sapiens, UniProt P08684); assay: Inhibition of CYP3A4 (unknown origin) at 10 uM; assay type: ADME
Cytochrome P450 2C9 = Cytochrome P450 2C9 (Homo sapiens, UniProt P11712); assay: Inhibition of CYP2C9 (unknown origin) at 10 uM; assay type: ADME
Cytochrome P450 2D6 = Cytochrome P450 2D6 (Homo sapiens, UniProt P10635); assay: Inhibition of CYP2D6 (unknown origin) at 10 uM; assay type: ADME
Cytochrome P450 2C19 = Cytochrome P450 2C19 (Homo sapiens, UniProt P33261); assay: Inhibition of CYP2C19 (unknown origin) at 10 uM; assay type: ADME
Mus musculus = assay: In vivo inhibition of SRC phosphorylation at tyrosine 416 in human HCT116 cells xenografted in mouse at 50 mg/kg via oral gavage administered daily for 3 days measured 3 hrs post last dose by immunohistochemistry; assay type: functional, organism-based; conditions: HCT-116
[17] = target: T2, Proto-oncogene tyrosine-protein kinase Src (Homo sapiens, UniProt P12931)
[18] = target: T2, Proto-oncogene tyrosine-protein kinase Src; assay: biochemical; assay type: cell-based
[19] = target: Tyrosine-protein kinase ABL1 (Homo sapiens, UniProt P00519)

Mast/stem cell growth factor receptor Kit, sequence (P10721 whole entry): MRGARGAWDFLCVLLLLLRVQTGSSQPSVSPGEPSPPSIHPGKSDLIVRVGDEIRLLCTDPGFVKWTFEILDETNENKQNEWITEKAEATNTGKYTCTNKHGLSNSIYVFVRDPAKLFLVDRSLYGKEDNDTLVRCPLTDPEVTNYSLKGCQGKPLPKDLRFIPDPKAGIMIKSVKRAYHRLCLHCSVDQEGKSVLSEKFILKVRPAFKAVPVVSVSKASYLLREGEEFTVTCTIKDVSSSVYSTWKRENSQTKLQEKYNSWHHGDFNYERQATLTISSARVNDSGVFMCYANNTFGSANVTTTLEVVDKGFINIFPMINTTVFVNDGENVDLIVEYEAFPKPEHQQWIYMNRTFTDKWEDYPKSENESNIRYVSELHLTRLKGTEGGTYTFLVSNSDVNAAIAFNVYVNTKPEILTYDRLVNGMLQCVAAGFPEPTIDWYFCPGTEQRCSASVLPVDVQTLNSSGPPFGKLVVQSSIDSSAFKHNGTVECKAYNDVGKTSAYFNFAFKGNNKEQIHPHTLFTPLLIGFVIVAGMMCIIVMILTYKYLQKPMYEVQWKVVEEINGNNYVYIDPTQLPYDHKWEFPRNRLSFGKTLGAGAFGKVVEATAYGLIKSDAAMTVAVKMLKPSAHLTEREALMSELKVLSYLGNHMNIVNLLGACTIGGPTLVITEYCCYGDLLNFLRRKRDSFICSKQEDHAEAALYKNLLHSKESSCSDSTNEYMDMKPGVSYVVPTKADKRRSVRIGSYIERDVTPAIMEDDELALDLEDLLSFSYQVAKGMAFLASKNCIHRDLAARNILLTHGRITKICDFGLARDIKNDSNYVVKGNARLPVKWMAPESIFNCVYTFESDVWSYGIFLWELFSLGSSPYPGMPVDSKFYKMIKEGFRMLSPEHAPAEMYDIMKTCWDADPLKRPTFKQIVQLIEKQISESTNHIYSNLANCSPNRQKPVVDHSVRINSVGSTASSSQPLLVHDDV
T2 sequence (P12931 2-536 limits assumed): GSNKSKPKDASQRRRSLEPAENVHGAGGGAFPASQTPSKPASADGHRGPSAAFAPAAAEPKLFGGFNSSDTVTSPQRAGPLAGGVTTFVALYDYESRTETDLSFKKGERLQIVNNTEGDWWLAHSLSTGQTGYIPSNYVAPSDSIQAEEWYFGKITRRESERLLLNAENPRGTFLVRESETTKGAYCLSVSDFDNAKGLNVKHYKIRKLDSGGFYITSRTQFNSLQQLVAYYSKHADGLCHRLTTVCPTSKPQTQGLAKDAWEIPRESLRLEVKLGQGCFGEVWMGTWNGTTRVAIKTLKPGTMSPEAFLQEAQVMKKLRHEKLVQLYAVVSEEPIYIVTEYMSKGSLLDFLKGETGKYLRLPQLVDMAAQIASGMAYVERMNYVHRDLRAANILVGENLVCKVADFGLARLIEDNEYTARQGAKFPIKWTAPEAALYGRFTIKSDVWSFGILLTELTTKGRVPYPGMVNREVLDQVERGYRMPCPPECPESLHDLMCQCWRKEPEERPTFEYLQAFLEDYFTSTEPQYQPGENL
Platelet-derived growth factor receptor alpha, sequence (P16234 whole entry): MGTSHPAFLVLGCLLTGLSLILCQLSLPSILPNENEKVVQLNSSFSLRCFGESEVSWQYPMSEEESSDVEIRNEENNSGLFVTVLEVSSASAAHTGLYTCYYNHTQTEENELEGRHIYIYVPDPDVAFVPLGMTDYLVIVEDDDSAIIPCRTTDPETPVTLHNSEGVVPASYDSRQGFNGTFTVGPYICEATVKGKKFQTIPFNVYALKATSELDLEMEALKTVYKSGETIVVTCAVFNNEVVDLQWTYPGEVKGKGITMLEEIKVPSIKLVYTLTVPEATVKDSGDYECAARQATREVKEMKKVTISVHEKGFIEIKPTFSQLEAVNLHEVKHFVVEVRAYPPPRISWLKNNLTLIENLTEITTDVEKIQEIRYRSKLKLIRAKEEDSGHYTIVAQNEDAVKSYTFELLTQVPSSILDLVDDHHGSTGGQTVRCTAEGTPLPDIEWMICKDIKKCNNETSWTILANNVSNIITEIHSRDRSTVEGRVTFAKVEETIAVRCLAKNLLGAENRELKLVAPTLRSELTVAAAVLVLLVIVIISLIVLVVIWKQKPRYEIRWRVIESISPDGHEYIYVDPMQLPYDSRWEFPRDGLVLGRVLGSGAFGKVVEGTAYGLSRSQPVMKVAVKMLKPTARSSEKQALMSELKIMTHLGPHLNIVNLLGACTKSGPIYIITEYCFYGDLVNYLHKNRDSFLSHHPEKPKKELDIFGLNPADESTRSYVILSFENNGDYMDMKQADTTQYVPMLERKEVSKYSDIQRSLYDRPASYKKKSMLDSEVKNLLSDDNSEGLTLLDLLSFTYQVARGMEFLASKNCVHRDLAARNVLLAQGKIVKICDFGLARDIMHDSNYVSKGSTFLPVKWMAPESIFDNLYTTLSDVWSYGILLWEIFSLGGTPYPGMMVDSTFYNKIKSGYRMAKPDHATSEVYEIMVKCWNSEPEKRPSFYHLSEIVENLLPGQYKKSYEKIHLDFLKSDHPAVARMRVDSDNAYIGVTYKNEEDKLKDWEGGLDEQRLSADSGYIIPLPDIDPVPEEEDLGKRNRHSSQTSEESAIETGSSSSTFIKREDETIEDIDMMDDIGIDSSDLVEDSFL
Proto-oncogene tyrosine-protein kinase receptor Ret, sequence (P07949 whole entry): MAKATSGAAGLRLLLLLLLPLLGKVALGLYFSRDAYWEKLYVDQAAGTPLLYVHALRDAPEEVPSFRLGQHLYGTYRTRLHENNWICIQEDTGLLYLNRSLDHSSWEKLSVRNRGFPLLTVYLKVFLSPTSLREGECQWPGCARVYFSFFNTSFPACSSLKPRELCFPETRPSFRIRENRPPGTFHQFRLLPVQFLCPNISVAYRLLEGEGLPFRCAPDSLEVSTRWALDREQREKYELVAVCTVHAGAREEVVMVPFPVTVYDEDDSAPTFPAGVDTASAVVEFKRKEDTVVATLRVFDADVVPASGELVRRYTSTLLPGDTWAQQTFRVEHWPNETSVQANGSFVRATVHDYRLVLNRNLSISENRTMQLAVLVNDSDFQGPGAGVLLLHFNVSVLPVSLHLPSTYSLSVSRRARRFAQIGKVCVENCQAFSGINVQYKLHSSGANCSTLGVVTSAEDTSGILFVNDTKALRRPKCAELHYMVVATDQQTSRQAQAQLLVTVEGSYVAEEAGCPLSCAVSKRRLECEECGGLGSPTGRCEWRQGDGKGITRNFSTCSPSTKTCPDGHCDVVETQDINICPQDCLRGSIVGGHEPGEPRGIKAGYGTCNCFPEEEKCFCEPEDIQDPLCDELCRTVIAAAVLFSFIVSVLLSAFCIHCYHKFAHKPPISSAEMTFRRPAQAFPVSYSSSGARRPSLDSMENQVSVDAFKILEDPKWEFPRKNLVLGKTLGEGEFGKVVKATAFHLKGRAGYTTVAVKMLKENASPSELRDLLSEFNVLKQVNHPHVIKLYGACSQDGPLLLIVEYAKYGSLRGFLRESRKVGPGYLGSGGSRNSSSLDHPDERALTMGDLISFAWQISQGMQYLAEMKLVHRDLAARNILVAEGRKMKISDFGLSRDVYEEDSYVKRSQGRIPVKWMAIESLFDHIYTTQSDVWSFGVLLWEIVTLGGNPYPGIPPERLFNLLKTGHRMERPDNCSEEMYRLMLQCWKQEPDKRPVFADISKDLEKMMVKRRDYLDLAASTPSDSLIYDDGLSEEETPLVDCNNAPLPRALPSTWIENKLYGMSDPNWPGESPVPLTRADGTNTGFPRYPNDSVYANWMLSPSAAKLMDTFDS
Cytochrome P450 2D6, sequence (P10635 whole entry): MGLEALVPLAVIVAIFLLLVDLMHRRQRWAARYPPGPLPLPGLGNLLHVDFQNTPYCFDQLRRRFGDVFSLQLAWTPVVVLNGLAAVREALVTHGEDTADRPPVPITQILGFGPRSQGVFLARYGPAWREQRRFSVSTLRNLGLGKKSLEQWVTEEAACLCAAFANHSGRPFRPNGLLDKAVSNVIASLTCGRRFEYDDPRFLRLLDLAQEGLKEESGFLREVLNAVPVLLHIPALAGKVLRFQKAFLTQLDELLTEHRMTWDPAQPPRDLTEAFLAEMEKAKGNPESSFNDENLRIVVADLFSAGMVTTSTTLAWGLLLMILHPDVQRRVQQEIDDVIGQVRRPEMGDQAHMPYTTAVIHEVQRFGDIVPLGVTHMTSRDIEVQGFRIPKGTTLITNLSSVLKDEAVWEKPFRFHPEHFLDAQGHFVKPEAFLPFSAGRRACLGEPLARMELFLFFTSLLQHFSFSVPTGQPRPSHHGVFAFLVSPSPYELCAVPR
Cytochrome P450 3A4, sequence (P08684 whole entry): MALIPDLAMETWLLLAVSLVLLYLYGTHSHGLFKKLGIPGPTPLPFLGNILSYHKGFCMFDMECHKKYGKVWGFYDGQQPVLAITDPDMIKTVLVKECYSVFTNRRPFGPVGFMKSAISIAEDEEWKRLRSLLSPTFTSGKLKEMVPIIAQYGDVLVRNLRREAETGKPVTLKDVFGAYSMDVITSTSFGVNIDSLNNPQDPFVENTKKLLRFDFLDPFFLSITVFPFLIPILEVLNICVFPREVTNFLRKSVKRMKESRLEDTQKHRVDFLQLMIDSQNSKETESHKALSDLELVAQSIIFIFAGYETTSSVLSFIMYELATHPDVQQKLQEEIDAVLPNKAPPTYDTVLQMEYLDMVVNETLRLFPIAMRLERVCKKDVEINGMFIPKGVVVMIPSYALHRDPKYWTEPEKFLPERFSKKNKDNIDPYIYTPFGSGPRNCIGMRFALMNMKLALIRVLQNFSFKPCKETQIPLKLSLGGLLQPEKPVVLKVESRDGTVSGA

With `CCOC(Cn1nc(-c2ccc(C)cc2)c2c(N)ncnc21)OCC` the EC50 (MCF7 [1]) was 30.9 µM.
For `Cc1ccc(-c2nn(CCN3CCC(CCN(C)C)CC3)c3ncnc(N)c23)cc1`, the Activity (MCF7 [2]) was “Active”, the IC50 [3] was > 10 µM and the IC50 [4] was > 10 µM. For the same molecule, the IC50 [5] was > 10 µM and the IC50 [6] was > 10 µM.
With `COc1cc(-c2nn(CCN3CCC(N(C)C)CC3)c3ncnc(N)c23)ccc1CC(=O)N1CCCC1` the EC50 (MDA-MB-231 [7]) was > 100 µM.
With `CCOC(Cn1nc(-c2cccc(O)c2)c2c(N)ncnc21)OCC` the EC50 (MCF7 [1]) was 7.6 µM.
For `CN(C)CC1CCN(CCn2nc(-c3cnc4[nH]ccc4c3)c3c(N)ncnc32)CC1`, the Activity (MCF7 [8]) was “Active”, the IC50 [3] was > 10 µM and the IC50 [4] was 8.57 µM. For the same molecule, the IC50 [5] was > 10 µM.
With `COc1cc(-c2nn(CCN3CCC(N(C)C)CC3)c3ncnc(N)c23)ccc1NCc1cccnc1` the EC50 (MDA-MB-231 [7]) was 4.14 µM.
In the case of `CN(C)C1CCN(CCn2nc(-c3ccc(NC(=O)OC(C)(C)C)c(O)c3)c3c(N)ncnc32)CC1`, the EC50 (MDA-MB-231 [7]) is reported as 9.71 µM.
In the case of `COc1cc(-c2nn(CCN3CCCC(N(C)C)C3)c3ncnc(N)c23)ccc1NC(=O)OC(C)(C)C` (configuration not stated), the EC50 (MDA-MB-231 [7]) is reported as 1.99 µM.
With `CN(C)C1CCN(CCn2nc(-c3ccc(NC(=O)OC(C)(C)C)nc3)c3c(N)ncnc32)CC1` the EC50 (MDA-MB-231 [7]) was 17.7 µM.
`CN(C)C1CCN(CCn2nc(-c3ccc4c(ccn4C(=O)OC(C)(C)C)c3)c3c(N)ncnc32)CC1` gave an EC50 (MDA-MB-231 [7]) of 4.15 µM.
Molecule `CN(C)C1CCN(CCn2nc(-c3cccc(NC(=O)OC(C)(C)C)c3)c3c(N)ncnc32)CC1` has an EC50 (MDA-MB-231 [7]) of 26.8 µM.
`COc1cc(-c2ccn(CCN3CCC(N(C)C)CC3)n2)ccc1NC(=O)OC(C)(C)C` showed an EC50 (MDA-MB-231 [7]) of 32.6 µM.
Molecule `COc1ccc(-c2nn(CCN3CCC(CN(C)C)CC3)c3ncnc(N)c23)cc1OC` has an EC50 (MCF7 [1]) of 18.3 µM.
With `COc1cc(-c2nn(CCN3CCC(N(C)C)CC3)c3ncnc(N)c23)ccc1NC(=O)OC(C)(C)C` the inhibition [9] was “inactive”, the Activity [10] was “Non-toxic” and the Activity (MDA-MB-231 [11]) was “Active”. The Activity (MDA-MB-231 [12]) was “Toxic”, the Activity (MCF7 [13]) was “Active” and the Activity (Danio rerio) was “Non-toxic”. For the same molecule, the Stability (Plasma [14]) was “Stable”, the Stability (Plasma [15]) was “Stable” and the Stability (Plasma [16]) was “Stable”. For the same molecule, the “inhibition (INH)” value (Cytochrome P450 1A2) was “Active”, the “inhibition (INH)” value (Cytochrome P450 3A4) was “Not Active” and the “inhibition (INH)” value (Cytochrome P450 2C9) was “Not Active”. For the same molecule, the “inhibition (INH)” value (Cytochrome P450 2D6) was “Not Active”, the “inhibition (INH)” value (Cytochrome P450 2C19) was “Not Active” and the inhibition (Mus musculus) was “Active”. The IC50 [3] was > 10 µM and the TDI [17] was “inactive”.
With `Cc1ccc(-c2nn(CCN3CCN(CCN(C)C)CC3)c3ncnc(N)c23)cc1` the Activity (MCF7 [2]) was “Active”.
For `COc1cc(-c2nn(CCN3CCC(CN(C)C)CC3)c3ncnc(N)c23)ccc1NC(=O)OC(C)(C)C`, the Activity [10] was “Non-toxic”.
For `CCOC(Cn1nc(-c2ccc3ncccc3c2)c2c(N)ncnc21)OCC`, the EC50 (MCF7 [1]) was 263 µM.
In the case of `CN(C)C1CCN(CCn2nc(-c3ccc(NC(=O)OC(C)(C)C)cc3)c3c(N)ncnc32)CC1`, the IC50 [18] is reported as 0.071 µM and the IC50 [19] is reported as > 10 µM.
